Data on 15 compounds can be found in patent publication US10774074B2, “2-(1-heteroarylpiperazin-4-yl)methyl-1,4-benzodioxane derivatives as alpha2C antagonists” (ORION CORPORATION, priority 2015, dated 2020).

Assay [1] addresses T1, human alpha2C receptors (Homo sapiens, UniProt P18825).
T1 construct: host or cells: CHO cells, cotransfected with pCEP-Gα16
T1 sequence (P18825 1-462): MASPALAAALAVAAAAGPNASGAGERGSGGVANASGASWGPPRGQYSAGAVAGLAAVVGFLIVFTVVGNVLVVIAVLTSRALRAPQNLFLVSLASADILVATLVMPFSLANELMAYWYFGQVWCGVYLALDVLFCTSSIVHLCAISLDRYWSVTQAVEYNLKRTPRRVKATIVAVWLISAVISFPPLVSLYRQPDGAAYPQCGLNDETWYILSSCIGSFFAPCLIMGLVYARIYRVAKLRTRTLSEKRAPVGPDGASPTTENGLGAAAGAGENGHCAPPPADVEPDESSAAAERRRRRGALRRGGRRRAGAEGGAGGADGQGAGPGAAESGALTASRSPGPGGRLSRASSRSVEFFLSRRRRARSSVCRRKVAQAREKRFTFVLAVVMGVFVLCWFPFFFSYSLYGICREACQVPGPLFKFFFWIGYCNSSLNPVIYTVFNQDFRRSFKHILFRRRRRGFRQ
The assay can be described thus: Determination of alpha2C antagonistic activity in vitro (FLIPR calcium assay, CHO cells). It counts as cell-based. To be noted: for Kb: Kb calculated with the Cheng-Prusoff equation from IC50, adrenaline as agonist, CHO cells, human alpha2C, read-out: Alpha 2C Adrenaline Kb; for IC50: antagonism of adrenaline stimulation, CHO cells stably transfected with human alpha2C receptor and Gα16, intracellular calcium (FLIPR), read-out: Alpha 2C Adrenaline IC50. As for the experimental part: (§1) EXPERIMENT 1: Determination of alpha2A and alpha2C Antagonistic Activity In Vitro
(§2) Chinese hamster ovary (CHO) cells stably transfected with human alpha2A or alpha2C receptors (University of Turku, Finland) were cotransfected with the expression vector pCEP-Gα16 (Molecular Devices, CA, USA) were used in this experiment. The cells were maintained at 37° C. in a 5% CO2/95% air atmosphere. The cells were cultured in HAM F-12 medium supplemented with 10% FCS, 25 mM HEPES, 100 IU/ml penicillin, 100 µg/ml streptomycin, 500 μg/ml geneticin and 240 μg/ml hygromycin B. The cells were subcultured twice weekly with 0.25% trypsin and 1 mM EDTA. The subculture ratio was 1:5-1:20. The growth medium was changed every 2 or 3 days. All cell culture reagents were from Gibco. The day before the experiment the cells were plated into black-walled, clear bottom 384-well plates at a density of 10,000 cells/well.
(§3) The growth medium was removed and the cells were incubated with the test compounds and the FLIPR Calcium 6 Assay reagent (Molecular Devices, CA, USA) for 2 h at 37° C. in dark. The test compounds (concentrations in cells 100 pM-10 μM) were dissolved in Probenecid-Ringer consisting of 150 mM NaCl, 3 mM KCl, 1.2 mM MgCl2, 1 mM CaCl2, 5 mM glucose, 20 mM HEPES and 2.5 mM probenecid (pH 7.4 adjusted with 1.0 M NaOH). The osmolarity was adjusted to 322 milliosmoles with Osmostat® OM-6020 osmometer (DIC Kyoto Daiichi Kagagu Co. Ltd, Japan). […] All experiments were performed at 37° C. For agonism measurements the test compounds dissolved in Probenecid-Ringer were applied by FLIPR Tetra at 15 s time point. In order to determine antagonism, the cells were stimulated either with 100 nM adrenaline or noradrenaline and the test compounds were added to the cells 2 h before the experiment with the FLIPR Calcium 6 Assay reagent. […] Typically, there were four replicates at each concentration and six different dose levels. For example, if the number of plates from which results were obtained was three, 72 (4*6*3) wells were thus measured to construct dose-response relationship. The samples were excited at 485 nm and emission was detected at 525 nm with a 515 nm cut-off filter. The minimum fluorescence value subtracted from the maximum value for each well was used in the calculations. ScreenWorks version 4.0 software was used for analyzing the results. Fitting of the antagonist dose-response results was performed with the free Hill equation and the IC50 values were fitted with IDBS XE software using model 200: y=(A+(B/(1+((x/C)^D)))), where A is the curve maximum, B the curve minimum and C equals the EC50 value. D is slope factor (Hill). Kb was calculated with the Cheng-Prusoff equation Kb=A/((B/C)+1), where A is the IC50 of antagonist, B the concentration of agonist and C the EC50 of the agonist.

Assay [2] concerns the target T2, human alpha2A receptors (Homo sapiens, UniProt P08913).
T2 construct: host or cells: CHO cells, cotransfected with pCEP-Gα16
T2 sequence (P08913 1-465): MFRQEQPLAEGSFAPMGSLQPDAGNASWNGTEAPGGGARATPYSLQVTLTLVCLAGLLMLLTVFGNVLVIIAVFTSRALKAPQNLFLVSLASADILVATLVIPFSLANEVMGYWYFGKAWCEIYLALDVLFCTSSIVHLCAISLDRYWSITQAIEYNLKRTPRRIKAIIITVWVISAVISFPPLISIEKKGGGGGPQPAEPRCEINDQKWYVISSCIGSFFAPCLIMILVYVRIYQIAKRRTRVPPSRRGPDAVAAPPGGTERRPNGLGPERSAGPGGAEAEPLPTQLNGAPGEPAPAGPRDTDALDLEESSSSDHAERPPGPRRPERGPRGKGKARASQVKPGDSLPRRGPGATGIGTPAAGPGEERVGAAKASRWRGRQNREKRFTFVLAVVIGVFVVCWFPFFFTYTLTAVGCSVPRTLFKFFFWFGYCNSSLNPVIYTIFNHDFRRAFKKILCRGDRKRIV
Description: Determination of alpha2A antagonistic activity in vitro (FLIPR calcium assay, CHO cells). It counts as cell-based. The following applies: for Kb: Kb calculated with the Cheng-Prusoff equation from IC50, adrenaline as agonist, CHO cells, human alpha2A, read-out: Alpha 2A Adrenaline Kb; for IC50: antagonism of adrenaline stimulation, CHO cells stably transfected with human alpha2A receptor and Gα16, intracellular calcium (FLIPR), read-out: Alpha 2A Adrenaline IC50. As for the experimental part: as §1, §2, §3

Where a name gives a salt, the structure may show the parent alone.

For the compound `Cc1c(C(C)(C)O)c(N2CCN(C[C@H]3COc4ccccc4O3)CC2)nn1C` [Compound of example 13, (S)-2-(3-(4-((2,3-Dihydrobenzo[b][1,4]dioxin-2-yl)methyl)piperazin-1-yl)-1,5-dimethyl-1H-pyrazol-4-yl)propan-2-ol], in assay [1], the antagonist equilibrium constant (Kb) (usually the equilibrium dissociation constant of an antagonist, usually derived from a functional assay) was 2.93 nM and the IC50 (in general, the point on the concentration scale where inhibition reaches its midpoint) was 0.3 nM. In addition, in assay [2], the Kb was 43 nM and the half-inhibitory concentration (IC50) was found to be 960 nM.
For `Cc1cccc(-n2nc(C)cc2N2CCN(C[C@H]3COc4ccccc4O3)CC2)n1` [Compound of example 40, (S)-1-((2,3-Dihydrobenzo[b][1,4]dioxin-2-yl)methyl)-4-(3-methyl-1-(6-methylpyridin-2-yl)-1H-pyrazol-5-yl)piperazine], the Kb in assay [1] is 2.57 nM; in assay [2] it was 100 nM. Also, the IC50 in assay [1] came to 0.26 nM; in assay [2], 2230 nM.
On to `CC1CCN(c2nsnc2N2CCN(C[C@H]3COc4ccccc4O3)CC2)C1=O` (stereo partly drawn) [Compound of example 21, 1-(4-(4-(((S)-2,3-Dihydrobenzo[b][1,4]dioxin-2-yl)methyl)piperazin-1-yl)-1,2,5-thiadiazol-3-yl)-3-methylpyrrolidin-2-one], for which, in assay [1], the antagonist equilibrium constant (Kb) was 0.38 nM and the IC50 was 0.04 nM. Moreover, in assay [2], the antagonist dissociation constant (Kb) was over 449 nM and the IC50 was over 10000 nM.
As to `c1ccc2c(c1)OC[C@H](CN1CCN(c3nsnc3Nc3ccncn3)CC1)O2` [Compound of example 19, (S)-4-(4-((2,3-Dihydrobenzo[b][1,4]dioxin-2-yl)methyl)piperazin-1-yl)-N-(pyrimidin-4-yl)-1,2,5-thiadiazol-3-amine], in assay [1], the Kb was under 0.1 nM and the IC50 was under 0.01 nM. Besides, in assay [2], the antagonist equilibrium constant (Kb) was 459 nM and the IC50 was 10200 nM.
`CN(C)C(=O)c1nsnc1N1CCN(C[C@H]2COc3ccccc3O2)CC1` [Compound of example 34, (S)-4-(4-((2,3-Dihydrobenzo[b][1,4]dioxin-2-yl)methyl)piperazin-1-yl)-N,N-dimethyl-1,2,5-thiadiazole-3-carboxamide]: in assay [1], the antagonist dissociation constant (Kb) was 0.92 nM and the half-maximal inhibitory concentration (IC50) amounted to 0.09 nM. In assay [2], the antagonist dissociation constant (Kb) is over 449 nM and the 50% inhibitory concentration (IC50) was over 10000 nM.
On to `CC(=O)c1nsnc1N1CCN(C[C@H]2COc3ccccc3O2)CC1` [Compound of example 33, (S)-1-(4-(4-((2,3-Dihydrobenzo[b][1,4]dioxin-2-yl)methyl)piperazin-1-yl)-1,2,5-thiadiazol-3-yl)ethanone], for which, in assay [1], the antagonist equilibrium constant (Kb) was 401 nM and the IC50 stood at 40.4 nM. In addition, in assay [2], the Kb is over 449 nM and the half-maximal inhibitory concentration (IC50) was over 10000 nM.
As to `COc1cccc(-n2nc(C)cc2N2CCN(C[C@H]3COc4ccccc4O3)CC2)n1` [Compound of example 39, (S)-1-((2,3-Dihydrobenzo[b][1,4]dioxin-2-yl)methyl)-4-(1-(6-methoxypyridin-2-yl)-3-methyl-1H-pyrazol-5-yl)piperazine], in assay [1], the antagonist dissociation constant (Kb) was 0.29 nM and the IC50 is 0.03 nM. Further, in assay [2], the Kb is 82 nM and the IC50 came to 1830 nM.
Turning to `c1ccc2c(c1)OC[C@H](CN1CCN(c3nsc4cccnc34)CC1)O2` [Compound of example 36, (S)-3-(4-((2,3-Dihydrobenzo[b][1,4]dioxin-2-yl)methyl)piperazin-1-yl)isothiazolo[4,5-b]pyridine hydrochloride], the figures for the antagonist equilibrium constant (Kb) in assay [1] and in assay [2] were 135 nM and 298 nM, respectively. Moreover, the half-maximal inhibitory concentration (IC50) in assay [1] was determined as 13.6 nM; in assay [2], 6650 nM.
As to `Cc1nc(C#N)c(N2CCN(C[C@H]3COc4ccccc4O3)CC2)o1` [Compound of example 3, (S)-5-(4-((2,3-Dihydrobenzo[b][1,4]dioxin-2-yl)methyl)piperazin-1-yl)-2-methyloxazole-4-carbonitrile], in assay [1], the Kb was 912 nM and the IC50 was determined as 91.9 nM. For the same compound, in assay [2], the antagonist equilibrium constant (Kb) was over 449 nM and the IC50 is over 10000 nM.
With `Cc1c(N2CCOC2=O)c(N2CCN(C[C@H]3COc4ccccc4O3)CC2)nn1C` [Compound of example 5, (S)-3-(3-(4-((2,3-Dihydrobenzo[b][1,4]dioxin-2-yl)methyl)piperazin-1-yl)-1,5-dimethyl-1H-pyrazol-4-yl)oxazolidin-2-one], the Kb in assay [1] is 1 nM; in assay [2], 206 nM. In addition, the IC50 in assay [1] amounted to 0.1 nM; in assay [2], 4590 nM.
`Cc1c(N2CC(C)(C)NC2=O)c(N2CCN(C[C@H]3COc4ccccc4O3)CC2)nn1C` [Compound of example 6, (S)-1-(3-(4-((2,3-Dihydrobenzo[b][1,4]dioxin-2-yl)methyl)piperazin-1-yl)-1,5-dimethyl-1H-pyrazol-4-yl)-4,4-dimethylimidazolidin-2-one]: in assay [1], the Kb is under 0.1 nM and the half-inhibitory concentration (IC50) was under 0.01 nM.
On to `Cc1c(N2CC(C)(C)N(C)C2=O)c(N2CCN(C[C@H]3COc4ccccc4O3)CC2)nn1C` [Compound of example 7, (S)-1-(3-(4-((2,3-Dihydrobenzo[b][1,4]dioxin-2-yl)methyl)piperazin-1-yl)-1,5-dimethyl-1H-pyrazol-4-yl)-3,4,4-trimethylimidazolidin-2-one], for which, in assay [1], the Kb is under 0.1 nM and the concentration for half-maximal inhibition (IC50) is under 0.01 nM.
In the case of `Cc1c(N2C(=O)CC(C)(C)C2=O)c(N2CCN(C[C@H]3COc4ccccc4O3)CC2)nn1C` [Compound of example 1, (S)-1-(3-(4-((2,3-Dihydrobenzo[b][1,4]dioxin-2-yl)methyl)piperazin-1-yl)-1,5-dimethyl-1H-pyrazol-4-yl)-3,3-dimethylpyrrolidine-2,5-dione], in assay [1], the antagonist dissociation constant (Kb) was under 0.1 nM and the IC50 was under 0.01 nM.
On the same counts, the results for `Cc1nc(N2CCN(C[C@H]3COc4ccccc4O3)CC2)c(N2C(=O)CC(C)(C)C2=O)s1` [Compound of example 32, (S)-1-(4-(4-((2,3-Dihydrobenzo[b][1,4]dioxin-2-yl)methyl)piperazin-1-yl)-2-methylthiazol-5-yl)-3,3-dimethylpyrrolidine-2,5-dione hydrochloride] are under 0.1 nM and under 0.01 nM.
“(S)-4-(4-((2,3-Dihydrobenzo[b][1,4]dioxin-2-yl)methyl)piperazin-1-yl)-N-(pyridin-4-yl)-1,2,5-thiadiazol-3-amine dihydrochloride [Compound of example 35]”: in assay [2], the Kb is 275 nM and the concentration for half-maximal inhibition (IC50) amounted to 6130 nM.
